The text below walks through data of patent EP4019580A1, “REDUCTION OF FLUORINATED ACID IN FLUOROPOLYMERS” (3M Innovative Properties Company, priority 2020, dated 2022).

SMILES strings stand for the structures.

Data set [1] can be described thus: Cryogenic grinding of crystalline perfluorinated polymers on the Spex mill, MeOH extraction and LC/MS determination of perfluorinated carboxylic acids. It counts as physicochemical. As to conditions: 10 wt.-% BHT versus no radical scavenger. The text has this:
(§1) The general procedures described in "3M Standard Method for PFAS in Articles of Commerce, Edition 1, 02 June 2020", including the test and analytical equipment, was followed. The disclosure of this document is incorporated herein by reference in its entirety. In particular, reference is made with regard to the experimental and analytical setup and methods used in the present disclosure to the chapter "Part 3: Instrumental Analysis", 3.1.1 "Analytical Equipment and Materials" as well as 3.1.2 "HPLC Conditions (exemplary)".
(§2) The submitted samples were dissolved in methanol prior to analysis. Standard solutions were prepared from an aqueous solution of Adona that was determined to have a concentration of 28.36% by NMR.
In this study the inhibition effect of radical scavengers on the generation of perfluorinated carboxylic acids during cryogenic grinding of crystalline fluoropolymers was investigated. The polymers were grinded on a Spex or Retsch mill under the addition of BHT (2,6-Di-tert-butyl-4-methylphenol; CAS 128-37-0). The BHT was added as a powder to the polymer in the milling tube. Table 3. Milling conditions.
Perfluorinated carboxylic acids were extracted with MeOH and determined by LC/MS measurements as published in the 3M Standard test method for the determination of PFOA in articles of commerce. […]

Data set [2] in a line: Cryogenic grinding of perfluorinated elastomers (Spex mill), MeOH extraction and LC/MS determination of perfluorinated carboxylic acids. To be noted: 10 wt.-% BHT versus no radical scavenger. It is filed as physicochemical.
Description: as §1, §2
In this study the inhibition effect of radical scavengers on the generation of perfluorinated carboxylic acids during cryogenic grinding of PFE and PFE compounds was investigated. As example 1, PTFE 191 plus 10 wt.-% BHT as radical scavenger was used. The amount of BHT was added as a powder to the gum in the milling container. Comparative Example 1 was PTFE 191 without BHT or any other radical scavengers. […]
The perfluorinated carboxylic acids were determined by extraction of the grinded material with MeOH and subsequent LC/MS measurements. […]

Consider `Cc1cc(C(C)(C)C)c(O)c(C(C)(C)C)c1` [BHT, 2,6-Di-tert-butyl-4-methylphenol], for which the “formation of C3-C7 Perfluorocarboxylic acids is reduced by a factor of” value in data set [1] is 18. Moreover, the “lowers the PFOA formation” value in data set [2] is “within three orders of magnitude”.
